# What was measured:
# [1] = system: biofilms of P. aeruginosa PAO1; assay: In vitro flow cell biofilm killing, live dead stains and CSLM; format: cell-based
# Procedure: Dead cells are stained with the DNA stain PI (Dark grey/black). The biofilm were visualized with CSLM. C) Implant model treated with ajoene and tobramycin.
# 3873-3880]. It was however unknown what was the active ingredient in the garlic extract. Thus. biofilms of P. aeruginosa strain were either grown in the presence or absence of 100 μg/ml ajoene. At day three the biofilms were treated with 10 μg/ml tobramycin for 24 hours. […] 10 μg/ml tobramycin was therefore chosen for the present study.
# [2] = system: wild-type P. aeruginosa; assay: Foreign-body (silicone tube implant) infection model; format: in vivo, mice; conditions: CFU per implant 72 hours after insertion
# Procedure: To examine the effect of a combination treatment with ajoene and tobramycin in vivo we used an foreign-body infection model [L. D. Christensen et al., Microbiology, 2007, 153, p. 2312-2320]. Silicone tube implants with a size of 4 mm (inner diameter 4 mm/outer diameter 6 mm) pre-colonized with wild-type P. aeruginosa, were inserted into the peritoneal cavity of mice. Treatments were injected subcutaneously every 24 hours, where ajoene and tobramycin treatment were initiated two days pre-insertion and 24 hours post-insertion, respectively. 72 hours after insertion the implants were removed from the mice and the number of colony-forming units per implant was determined. […] (E,Z) ajoene having an E:Z ratio of 1:4 was used.
# [3] = system: P. aeruginosa PAO1; format: in vivo; conditions: day three post-infection; E:Z 1:4 (FIG. 8)
# Procedure: Mice were sacrificed on day one or day three post-infection and the contents of bacteria in the lungs were determined. Open squares indicate bacterial lung content per lung for each individual mouse. The median values are indicated with a filled black square. The statistic significance of difference in clearance was tested by a Mann-Whitney U test (analysis of nonparametric data) and p-values for the difference at day one and day three were 0.9 and 0.002 respectively.
# In this study ajoene was administered prophylactic and subsequently continued after infection. Injections were given subcutaneous in the peritoneum. We performed three individual in vivo treatment experiments with ajoene in the mouse model of pulmonary infection using the P. aeruginosa PAO1. BALB/c mice were intracheally challenged (at day 0) with alginate beads containing 1.5×10^8 CFU/ml P. aeruginosa. The two groups of mice were either untreated (placebo) or treated with ajoene 25 μg/g mouse once a day. The mice were given two days of prophylactic treatment or placebo prior to bacterial challenge. Treatment was continued for three days. […] When combining the experiments a significant difference on day three was seen (p<0.002) with a 500 fold difference in clearance between the groups (FIG. 7). This is concordant with the results obtained by Bjarnsholt et al (2005) in a similar lung infection model in with raw garlic extract was used as treatment [T. Bjarnsholt et al., Microbiology, 2005, 151, p. 3873-3880].
# This highlights that a synthesis providing a sufficiently pure “crude” ajoene product is essential in order to avoid the use of HPLC purification, as this step has a detrimental effect on biological activity. […] (E,Z) ajoene having an E:Z ratio of 1:4 was used.
Compound,"extent of killing, comparison of tobramycin concentrations ([1]; prior treatment study, 10 μg/ml, 100 μg/ml or 340 μg/ml)","killing of the biofilm bacteria, single agent ([1]; tobramycin or ajoene only)","clearing of implants, single treatment versus placebo group [2]","clearing the pulmonary infection, by ajoene purity [3]"
NC[C@H]1O[C@H](O[C@H]2[C@H](O)[C@@H](O[C@H]3O[C@H](CO)[C@@H](O)[C@H](N)[C@H]3O)[C@H](N)C[C@@H]2N)[C@H](N)C[C@@H]1O [tobramycin],no difference in the extent of killing,no or only minor killing,significant difference in clearing,–
C=CCSSC=CC[S+]([O-])CC=C (centres unmarked) [very high purity ajoene],–,–,–,not effective at clearing the pulmonary infection
C=CCSSC=CC[S+]([O-])CC=C (centres unmarked) [95-99.5% purity ajoene],–,–,–,effective at clearing the pulmonary infection
